Numbers after ± are expanded uncertainties.
Assay: Boiling temperature at pressure P
Conditions: 100 kPa; Liquid; Ebulliometric method (Recirculating still)

## CC(C)O [propan-2-ol]
  Boiling temperature at pressure P: 81.86 ± 0.22 °C

Reference: the NIST ThermoML archive (doi:10.1021/je060354r)
